Values quoted from earlier work in patent publication US20220193002A1, “PROCESS FOR THE PREPARATION OF BAKUCHIOL COMPOSITION SUBSTANTIALLY FREE OF FURANOCOUMARIN IMPURITIES” (K V Natural Ingredients PVT LTD, priority 2020, published 2022).

Test system: S. mutans
Conditions: cell growth inhibited in a concentration dependent manner; complete prevention of growth

## C=C[C@@](C)(/C=C/c1ccc(O)cc1)CCC=C(C)C [bakuchiol, 4-[(1E,3S)-3-ethenyl-3,7-dimethylocta-1,6-dienyl]phenol]
  concentration at which the growth of S. mutans was completely prevented: 20 µg/mL
